According to patent US20250195530A1, “POLQ INHIBITORS” (ASTRAZENECA AB, priority 2022, published 2025):
Like-named read-outs stand apart in the source and are kept apart here.

Tests used:
DLD-1 BRCA2−/− cells = assay: Homologous recombination synthetic lethal inhibition of proliferation, DLD-1 BRCA2-/- (Cell Titre Glo 3D); format: cell-based; settings: Homo sapiens, read-out: POLQ PD Prolif Lumin (converted)
Procedure, shortened: (§1)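 Luminescent Cell Titre Glo 3D readout, taken on day 12 for homologous-recombination-deficient DLD-1 BRCA2−/− and day 7 for the wild-type control, after compound refresh on day 6. Compounds spanned 10 μM to 0.51 nM in three-fold steps; IC50 defined as 50% reduction of average maximum signal.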

DLD-1 cells = assay: Inhibition of proliferation, DLD-1 BRCA2 wt control (Cell Titre Glo 3D); format: cell-based; settings: Homo sapiens, read-out: POLQ PD Prolif Lumin (converted)
Procedure, shortened: as §1

[1] = DLD-1, proliferation, luminescence, taken as DLD-1 BRCA2-/-
[2] = DLD-1, proliferation, luminescence, second Prolif column (c6), taken as DLD-1 BRCA2 wt control
[3] = DLD-1, first proliferation column (c5), DLD-1 BRCA2-/-
[4] = DLD-1, second proliferation column (c6), DLD-1 BRCA2 wt control

SMILES	IC50 (DLD-1 BRCA2−/− cells; [1]) [µM]	IC50 (DLD-1 cells; [2]) [µM]	IC50 (DLD-1 BRCA2−/− cells; [3]) [µM]	IC50 (DLD-1 cells; [4]) [µM]
CC1(Oc2ncnc3c2nc(-c2ccc(OCCOCCOCC(=O)O)cc2Cl)n3Cc2cccc(Cl)c2)CC1 [Example T451, 2-(2-(2-(3-chloro-4-(9-(3-chlorobenzyl)-6-(1-methylcyclopropoxy)-9H-purin-8-yl)phenoxy)ethoxy)ethoxy)acetic acid]	0.501	> 10		
CC1(Oc2ncnc3c2nc(-c2ccc(OCCCN4CC(O)C4)cc2Cl)n3Cc2cc(C(F)F)ccn2)CC1 [Example T452, 1-(3-(3-chloro-4-(9-((4-(difluoromethyl)pyridin-2-yl)methyl)-6-(1-methylcyclopropoxy)-9H-purin-8-yl)phenoxy)propyl)azetidin-3-ol]	0.794	> 10		
CC1(Oc2ncnc3c2nc(-c2ccc(OCCN4CCNCC4)cc2C(F)(F)F)n3Cc2cc(Cl)ccn2)CC1 [Example T453, 9-((4-chloropyridin-2-yl)methyl)-6-(1-methylcyclopropoxy)-8-(4-(2-(piperazin-1-yl)ethoxy)-2-(trifluoromethyl)phenyl)-9H-purine]	0.251	> 10		
Cc1ccnc(Cn2c(-c3ccc(OC4CC5(CNC5)C4)cc3Cl)nc3c(OC4(C)CC4)ncnc32)c1 [Example T457, 8-(4-((2-azaspiro[3.3]heptan-6-yl)oxy)-2-chlorophenyl)-6-(1-methylcyclopropoxy)-9-((4-methylpyridin-2-yl)methyl)-9H-purine]	0.316	> 10		
Cc1ccnc(Cn2c(-c3ccc(C(=O)N4CCC(O)CC4)cc3Cl)nc3c(OC4(C)CC4)ncnc32)c1 [Example T460, (3-chloro-4-(6-(1-methylcyclopropoxy)-9-((4-methylpyridin-2-yl)methyl)-9H-purin-8-yl)phenyl)(4-hydroxypiperidin-1-yl)methanone]	3.16	> 10		
Cc1ccnc(Cn2c(-c3ccc(CC(=O)N4CC(C)(O)C4)cc3Cl)nc3c(OC4(C)CC4)ncnc32)c1 [Example T470, 2-(3-chloro-4-(6-(1-methylcyclopropoxy)-9-((4-methylpyridin-2-yl)methyl)-9H-purin-8-yl)phenyl)-1-(3-hydroxy-3-methylazetidin-1-yl)ethan-1-one]	1	> 10		
Cc1ccnc(Cn2c(-c3ccc(OC4CN(C(=O)[C@@H](C)O)C4)cc3Cl)nc3c(OC4(C)CC4)ncnc32)c1 [Example T482, (R)-1-(3-(3-chloro-4-(6-(1-methylcyclopropoxy)-9-((4-methylpyridin-2-yl)methyl)-9H-purin-8-yl)phenoxy)azetidin-1-yl)-2-hydroxypropan-1-one]	0.316	> 10		
CC1(Oc2ncnc3c2nc(-c2ccc(OCCN4CCNCC4)cc2Cl)n3Cc2ccc(C#N)cn2)CC1 [Example T484, 6-((8-(2-chloro-4-(2-(piperazin-1-yl)ethoxy)phenyl)-6-(1-methylcyclopropoxy)-9H-purin-9-yl)methyl)nicotinonitrile]			> 7.94	> 10
CC1(Oc2ncnc3c2nc(-c2ccc(OCCN4CCNCC4)cc2Cl)n3Cc2cc(C(F)F)ccn2)CC1 [Example T488, 8-(2-chloro-4-(2-(piperazin-1-yl)ethoxy)phenyl)-9-((4-(difluoromethyl)pyridin-2-yl)methyl)-6-(1-methylcyclopropoxy)-9H-purine]			1	> 10
Cc1ccnc(Cn2c(-c3ccc(CN4CC5(CCN5)C4)cc3Cl)nc3c(OC4(C)CC4)ncnc32)c1 [Example T489, 8-(4-((1,6-diazaspiro[3.3]heptan-6-yl)methyl)-2-chlorophenyl)-6-(1-methylcyclopropoxy)-9-((4-methylpyridin-2-yl)methyl)-9H-purine]			0.794	5.01
Cc1ccnc(Cn2c(-c3ccc(CC(=O)N4CCNCC4)cc3Cl)nc3c(OC4(C)CC4)ncnc32)c1 [Example T495, 2-(3-chloro-4-(6-(1-methylcyclopropoxy)-9-((4-methylpyridin-2-yl)methyl)-9H-purin-8-yl)phenyl)-1-(piperazin-1-yl)ethan-1-one]			0.794	> 10
Cc1ccnc(Cn2c(-c3ccc(C(=O)N4CCCNCC4)cc3Cl)nc3c(OC4(C)CC4)ncnc32)c1 [Example T496, (3-chloro-4-(6-(1-methylcyclopropoxy)-9-((4-methylpyridin-2-yl)methyl)-9H-purin-8-yl)phenyl)(1,4-diazepan-1-yl)methanone]			> 10	> 10
CC1(Oc2ncnc3c2nc(-c2ccc(OCCCN4CC[C@@H](O)C4)cc2Cl)n3Cc2cc(Cl)ccn2)CC1 [Example T502, (R)-1-(3-(3-chloro-4-(9-((4-chloropyridin-2-yl)methyl)-6-(1-methylcyclopropoxy)-9H-purin-8-yl)phenoxy)propyl)pyrrolidin-3-ol]			0.126	> 7.94
CC1(Oc2ncnc3c2nc(-c2ccc(OCCCN4CC[C@H](O)C4)cc2Cl)n3Cc2cc(Cl)ccn2)CC1 [Example T503, (S)-1-(3-(3-chloro-4-(9-((4-chloropyridin-2-yl)methyl)-6-(1-methylcyclopropoxy)-9H-purin-8-yl)phenoxy)propyl)pyrrolidin-3-ol]			0.1	> 7.94
Cc1ccnc(Cn2c(-c3ccc(OCCN4CCNCC4)cc3Cl)nc3c(OC4(C)CC4)ncnc32)c1F [Example T504, 8-(2-chloro-4-(2-(piperazin-1-yl)ethoxy)phenyl)-9-((3-fluoro-4-methylpyridin-2-yl)methyl)-6-(1-methylcyclopropoxy)-9H-purine]			2	> 10
Cc1ccnc(Cn2c(-c3ccc(CCN4CCCC4)cc3Cl)nc3c(OC4(C)CC4)ncnc32)c1 [Example T505, 8-(2-chloro-4-(2-(pyrrolidin-1-yl)ethyl)phenyl)-6-(1-methylcyclopropoxy)-9-((4-methylpyridin-2-yl)methyl)-9H-purine]			0.158	> 10
Clc1cc(OCCN2CCNCC2)ccc1-c1nc2c(OC3CCC3)ncnc2n1Cc1ccccc1 [Example T506, 9-benzyl-8-(2-chloro-4-(2-(piperazin-1-yl)ethoxy)phenyl)-6-cyclobutoxy-9H-purine]			0.501	2
Cc1ccnc(Cn2c(-c3ccc(OCCN4CCCC4)cc3Cl)nc3c(OC4(C)CC4)ncnc32)c1 [Example T507, 8-(2-chloro-4-(2-(pyrrolidin-1-yl)ethoxy)phenyl)-6-(1-methylcyclopropoxy)-9-((4-methylpyridin-2-yl)methyl)-9H-purine]			0.1	> 10
Cc1ccnc(Cn2c(-c3ccc(CN4CCC(O)CC4)cc3Cl)nc3c(OC4(C)CC4)ncnc32)c1 [Example T508, 1-(3-chloro-4-(6-(1-methylcyclopropoxy)-9-((4-methylpyridin-2-yl)methyl)-9H-purin-8-yl)benzyl)piperidin-4-ol]			0.316	> 10
Cc1ccnc(Cn2c(-c3ccc(CCN4CC[C@@H](O)C4)cc3Cl)nc3c(OC4(C)CC4)ncnc32)c1 [Example T511, (R)-1-(3-chloro-4-(6-(1-methylcyclopropoxy)-9-((4-methylpyridin-2-yl)methyl)-9H-purin-8-yl)phenethyl)pyrrolidin-3-ol]			0.316	> 10
Cc1ccnc(Cn2c(-c3ccc(OCCN4CC[C@@H](O)C4)cc3Cl)nc3c(OC4(C)CC4)ncnc32)c1 [Example T512, (R)-1-(2-(3-chloro-4-(6-(1-methylcyclopropoxy)-9-((4-methylpyridin-2-yl)methyl)-9H-purin-8-yl)phenoxy)ethyl)pyrrolidin-3-ol]			0.2	> 10
Cc1ccnc(Cn2c(-c3ccc(OCCCN4CC(O)C4)cc3Cl)nc3c(OC4(C)CC4)ncnc32)c1 [Example T513, 1-(3-(3-chloro-4-(6-(1-methylcyclopropoxy)-9-((4-methylpyridin-2-yl)methyl)-9H-purin-8-yl)phenoxy)propyl)azetidin-3-ol]			0.316	> 10
Cc1ccnc(Cn2c(-c3cccc(OCCCN4CC(O)C4)c3Cl)nc3c(OC4(C)CC4)ncnc32)c1 [Example T514, 1-(3-(2-chloro-3-(6-(1-methylcyclopropoxy)-9-((4-methylpyridin-2-yl)methyl)-9H-purin-8-yl)phenoxy)propyl)azetidin-3-ol]			0.398	> 10
C[C@H]1CNCCN1CCOc1ccc(-c2nc3c(OC4(C)CC4)ncnc3n2Cc2cc(Cl)ccn2)c(Cl)c1 [Example T523, (S)-8-(2-chloro-4-(2-(2-methylpiperazin-1-yl)ethoxy)phenyl)-9-((4-chloropyridin-2-yl)methyl)-6-(1-methylcyclopropoxy)-9H-purine]			0.2	> 10
Cc1cc(Cl)nc(Cn2c(-c3ccc(OCCN4CCNCC4)cc3Cl)nc3c(OC4(C)CC4)ncnc32)c1 [Example T524, 8-(2-chloro-4-(2-(piperazin-1-yl)ethoxy)phenyl)-9-((6-chloro-4-methylpyridin-2-yl)methyl)-6-(1-methylcyclopropoxy)-9H-purine]			0.501	> 10
Cc1c(Cl)ccnc1Cn1c(-c2ccc(OCCN3CCNCC3)cc2Cl)nc2c(OC3(C)CC3)ncnc21 [Example T525, 9-((4-chloro-3-methylpyridin-2-yl)methyl)-8-(2-chloro-4-(2-(piperazin-1-yl)ethoxy)phenyl)-6-(1-methylcyclopropoxy)-9H-purine]			1.26	> 10
Cc1cnc(Cn2c(-c3ccc(OCCN4CCNCC4)cc3Cl)nc3c(OC4(C)CC4)ncnc32)cc1Cl [Example T526, 8-(2-chloro-4-(2-(piperazin-1-yl)ethoxy)phenyl)-9-((4-chloro-5-methylpyridin-2-yl)methyl)-6-(1-methylcyclopropoxy)-9H-purine]			0.631	> 10
